For this test, the system named is C17.2 differentiated neurons, thapsigargin death, ATPlite, 24 h. In words: ER stress death protection in C17.2 cells – cell-based, differentiated mouse neural stem C17.2, ATP luminescence, SAR follow-up (AID 1353). The note with it: at 25 µM, stronger effect = higher value.
The mark [1] stands for this setting: measured here: survival at thapsigargin 5 uM.
The mark [2] stands for this setting: measured here: survival at thapsigargin 15 uM.

Active and inactive are the calls of the source.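 The calls were made as follows: active = ATP loss reduced by over 30% versus thapsigargin-only wells, at any thapsigargin dose tested; inactive = the rest.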

As to `COc1ccc(C2CC(=O)C3=C(C2)Nc2ccccc2NC3c2cccc(C(F)(F)F)c2)cc1OC` (stereo not drawn), the survival is 5% (inactive). Moreover, the survival under setting [1] amounted to 59%. Under setting [2], the survival was found to be 0%.
For the molecule `COc1ccc(C2CC(=O)C3=C(C2)Nc2ccccc2NC3c2cccc(Oc3ccccc3)c2)cc1OC` (stereo not drawn), the survival was 50%. This molecule also showed a survival under setting [1] of 68%. In addition, under setting [2], the survival came to 1%.
The corresponding values for `COc1ccc(C2CC(=O)C3=C(C2)Nc2ccccc2NC3c2ccccc2C(F)(F)F)cc1OC` (stereo not drawn) are 12% (inactive), 55% and 1%.
The corresponding values for `CCOc1cc(C2Nc3ccccc3NC3=C2C(=O)CC(c2ccc(OC)cc2)C3)cc(Cl)c1O` (stereo not drawn) are 1% (inactive), 79% and 0%.
In the case of `COc1ccc(C2CC(=O)C3=C(C2)Nc2ccccc2NC3c2cccc(Br)c2)cc1OC` (stereo not drawn), the survival was 7% (inactive). Under setting [1], this molecule had a survival of 67%. For the same molecule, under setting [2], the survival is 0%.
As to `COc1ccc(C2CC(=O)C3=C(C2)Nc2ccccc2NC3c2cc(C)ccc2C)cc1` (stereo not drawn), the survival was 2% (inactive). The molecule also yielded a survival under setting [1] of 69%. Under setting [2], this molecule gave a survival of 0%.
Take `CCCOc1ccc(C2Nc3ccccc3NC3=C2C(=O)CC(c2ccc(OC)c(OC)c2)C3)cc1` (stereo not drawn): the survival was 20% (inactive). For the same molecule, the survival under setting [1] was 62%. Also, under setting [2], the survival worked out at 1%.
The corresponding values for `CCOc1cccc(C2Nc3ccccc3NC3=C2C(=O)CC(c2ccc(OC)cc2)C3)c1` (stereo not drawn) are 1% (inactive), 83% and 0%.
Consider `O=C1CC(c2ccccc2)CC2=C1C(c1c(F)cccc1Cl)Nc1ccccc1N2` (stereo not drawn), for which the survival was 10% (inactive). The molecule further registered a survival under setting [1] of 87%. The molecule also gave a survival under setting [2] of 1%.
Take `CSc1ccc(C2Nc3ccccc3NC3=C2C(=O)CC(c2ccccc2)C3)cc1` (stereo not drawn): the survival was 2% (inactive). Besides, the survival under setting [1] is 86%. Also, under setting [2], the survival came out at 0%.
Regarding `CC1(C)CC(=O)C2=C(C1)Nc1ccccc1NC2c1ccc(-c2ccccc2)cc1` (stereo not drawn), the survival is 1% (inactive). Further, under setting [1], the survival is 45%. Also, under setting [2], the survival turned out to be 0%.
